Structures are written as SMILES. Where a name gives a salt, the structure may show the parent alone. Read-outs that look alike come from different tables or passages of the source.

In this assay the target is T1, recombinant human beta tryptase (Homo sapiens, UniProt P20231).
T1 construct: made in house; host or cells: yeast cells
The assay is described as follows: beta-Tryptase inhibition, chromogenic enzyme assay (substrate S2366, read at 405 nm). Type of assay: biochemical. The method in brief: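 Recombinant human beta tryptase (yeast-expressed; native lung enzyme also used), 50 ng/mL final, with 0.5 mM (2×Km) chromogenic substrate S2366; 30 min in the dark, room temperature, read at 405 nm. Compounds at 0.01-10 μM in duplicate for IC50; Ki=IC50/(1+[S]/Km).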

[1] abbreviates: Tryptase Ki (nM), Ki calculated from IC50: Ki=IC50/(1+[Substrate]/Km), 0.5 mM substrate, room temperature.
The mark [2] stands for this setting: Ki calculated from IC50: Ki=IC50/(1+[Substrate]/Km), 0.5 mM substrate, room temperature, read-out: Tryptase Ki.

T1 sequence (P20231 31-275): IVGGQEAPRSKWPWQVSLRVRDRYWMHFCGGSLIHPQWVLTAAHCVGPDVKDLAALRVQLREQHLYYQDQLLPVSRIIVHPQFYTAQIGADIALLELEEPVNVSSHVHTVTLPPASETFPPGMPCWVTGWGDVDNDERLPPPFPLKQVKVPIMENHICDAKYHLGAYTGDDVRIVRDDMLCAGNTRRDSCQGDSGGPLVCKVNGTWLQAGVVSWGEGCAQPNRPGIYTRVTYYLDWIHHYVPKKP

Consider `NCc1ccc(F)c(C2CCN(C(=O)c3cn(CCOC(F)(F)F)c4cccc(-c5ccccc5)c34)CC2)c1` [Example 80, [4-(5-Aminomethyl-2-fluoro-phenyl)-piperidin-1-yl]-[4-phenyl-1-(2-trifluoromethoxy-ethyl)-1H-indol-3-yl]-methanone hydrochloride], for which, under setting [1], the Ki (as a rule, the equilibrium dissociation constant of an inhibitor or competing ligand from its target) is 961 nM.
Still for that read-out and setting: in the case of `NCc1ccc(F)c(C2CCN(C(=O)c3cn(CCOC(F)(F)F)c4ccccc34)CC2)c1` [Example 81, hydrochloride] it was 224 nM.
Consider `COCCn1cc(C(=O)N2CCC(c3cc(CN)ccc3F)CC2)c2c(-c3cncc(C)c3)cccc21` [Example 82, [4-(5-Aminomethyl-2-fluoro-phenyl)-piperidin-1-yl]-[1-(2-methoxy-ethyl)-4-(5-methyl-pyridin-3-yl)-1H-indol-3-yl]-methanone dihydrochloride], for which the Ki under setting [2] was 6 nM.
Consider `COCCn1cc(C(=O)N2CCC(c3cc(CN)ccc3F)CC2)c2c(-c3ccnc(C)c3)cccc21` [Example 83, [4-(5-Aminomethyl-2-fluoro-phenyl)-piperidin-1-yl]-[1-(2-methoxy-ethyl)-4-(2-methyl-pyridin-4-yl)-1H-indol-3-yl]-methanone dihydrochloride], for which the Ki under setting [2] was 5 nM.
Still for that read-out and setting: in the case of `COCCn1cc(C(=O)N2CCC(c3cc(CN)ccc3F)CC2)c2c(-c3cncc(F)c3)cccc21` [Example 84, [4-(5-Aminomethyl-2-fluoro-phenyl)-piperidin-1-yl]-[4-(5-fluoro-pyridin-3-yl)-1-(2-methoxy-ethyl)-1H-indol-3-yl]-methanone dihydrochloride] it was 22 nM.
As to `COCCn1cc(C(=O)N2CCC(c3cc(CN)ccc3F)CC2)c2c(-c3ccnc(OC)c3)cccc21` [Example 85, [4-(5-Aminomethyl-2-fluoro-phenyl)-piperidin-1-yl]-[1-(2-methoxy-ethyl)-4-(2-methoxy-pyridin-4-yl)-1H-indol-3-yl]-methanone dihydrochloride], the Ki under setting [2] is 9 nM.
In the case of `NCc1ccc(F)c(C2CCN(C(=O)c3cn(CCOC(F)(F)F)c4c(F)cccc34)CC2)c1` [Example 86, [4-(5-Aminomethyl-2-fluoro-phenyl)-piperidin-1-yl]-[7-fluoro-1-(2-trifluoromethoxy-ethyl)-1H-indol-3-yl]-methanone hydrochloride], the Ki under setting [1] was 80 nM.
For `NCc1ccc(F)c(C2CCN(C(=O)c3cn(CCOC(F)(F)F)c4c(Cl)cccc34)CC2)c1` [Example 87, hydrochloride], the inhibition constant (Ki) under setting [1] is 207 nM.
Take `Cc1cccc2c(C(=O)N3CCC(c4cc(CN)ccc4F)CC3)cn(CCOC(F)(F)F)c12` [Example 88, hydrochloride]: the Ki under setting [1] is 239 nM.
With `COCCn1cc(C(=O)N2CCC(c3cc(CN)ccc3F)CC2)c2c(-c3ccnn3C)cccc21` [Example 89, [4-(5-Aminomethyl-2-fluoro-phenyl)-piperidin-1-yl]-[1-(2-methoxy-ethyl)-4-(2-methyl-2H-pyrazol-3-yl)-1H-indol-3-yl]-methanone dihydrochloride], under setting [2], the Ki is 11 nM.
For the compound `NCc1ccc(F)c(C2CCN(C(=O)c3cn(CCOC(F)(F)F)c4cccc(F)c34)CC2)c1` [Example 90, [4-(5-Aminomethyl-2-fluoro-phenyl)-piperidin-1-yl]-[4-fluoro-(2-trifluoromethoxy-ethyl)-1H-indol-3-yl]-methanone hydrochloride], under setting [1], the inhibition constant Ki was 396 nM.
On to `COCCn1cc(C(=O)N2CCC(c3cc(CN)ccc3F)CC2)c2c(C(=O)N(C)C)cccc21` [Example 91, 3-[4-(5-Aminomethyl-2-fluoro-phenyl)-piperidine-1-carbonyl]-1-(2-methoxy-ethyl)-1H-indol-4-carboxylic acid dimethylamide hydrochloride], for which the Ki by setting is: under setting [1], 20 nM; (Tryptase Ki (nM), additional value in parentheses tagged "719" (code not explained)) 54 nM; (Tryptase Ki (nM), additional value in parentheses tagged "8923" (code not explained)) 28 nM.
In the case of `NCc1ccc(F)c(C2CCN(C(=O)c3cn(CCOC(F)(F)F)c4cccc(-c5cncnc5)c34)CC2)c1` [Example 92, [4-(5-Aminomethyl-2-fluoro-phenyl)-piperidin-1-yl]-[4-pyrimidin-5-yl-1-(2-trifluoromethoxy-ethyl)-1H-indol-3-yl]-methanone dihydrochloride], the inhibitory constant (Ki) under setting [1] was 90 nM.

The values above are taken from US20120245161A1 (SANOFI, priority 2009, published 2012).
